{
  "source": "paper PMC10762662",
  "about": "“An orally-available monovalent SMAC mimetic compound as a broad-spectrum antiviral” (Protein & Cell, 2023)",
  "experiment_in_all_cases": "BIR3 domain binding IC50 (assay format not stated)",
  "key": {"cIAP1": {"target": "T1, cIAP1 (Homo sapiens, UniProt Q13490)", "T1 construct": "gene BIRC2; BIR3 domain", "T1 sequence (Q13490 264-331 limits assumed)": "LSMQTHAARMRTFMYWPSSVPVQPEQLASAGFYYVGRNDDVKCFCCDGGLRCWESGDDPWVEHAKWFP"}, "XIAP": {"target": "T2, XIAP (Homo sapiens, UniProt P98170)", "T2 construct": "BIR3 domain", "T2 sequence (P98170 241-356 limits assumed)": "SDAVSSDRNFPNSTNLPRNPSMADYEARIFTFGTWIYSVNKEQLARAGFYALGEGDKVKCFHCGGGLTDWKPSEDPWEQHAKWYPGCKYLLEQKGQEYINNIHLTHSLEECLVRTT"}, "cIAP2": {"target": "T3, cIAP2 (Homo sapiens, UniProt Q13489)", "T3 construct": "gene BIRC3; BIR3 domain", "T3 sequence (Q13489 250-317 limits assumed)": "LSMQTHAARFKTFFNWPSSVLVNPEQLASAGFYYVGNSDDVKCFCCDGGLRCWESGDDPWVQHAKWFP"}},
  "data": [
    {"compound": "CN[C@@H](C)C(=O)Nc1ccc(-c2c(C)nc3ccccn23)c(C#Cc2ccc3ncccc3c2)n1", "note": "[BI-82]", "values": [
      {"measurement": "IC50", "setting": "cIAP1", "result": "0.9 ± 0.15", "unit": "nM"},
      {"measurement": "IC50", "setting": "XIAP", "result": "273 ± 82.5", "unit": "nM"},
      {"measurement": "IC50", "setting": "cIAP2", "result": "17.1 ± 5.37", "unit": "nM"}
    ]}
  ]
}
